The source made the active and inactive calls.
Key:
[1] = target: T1, Apoptotic protease-activating factor 1 (Homo sapiens, UniProt O14727); assay type: functional
T1 sequence (O14727 whole entry): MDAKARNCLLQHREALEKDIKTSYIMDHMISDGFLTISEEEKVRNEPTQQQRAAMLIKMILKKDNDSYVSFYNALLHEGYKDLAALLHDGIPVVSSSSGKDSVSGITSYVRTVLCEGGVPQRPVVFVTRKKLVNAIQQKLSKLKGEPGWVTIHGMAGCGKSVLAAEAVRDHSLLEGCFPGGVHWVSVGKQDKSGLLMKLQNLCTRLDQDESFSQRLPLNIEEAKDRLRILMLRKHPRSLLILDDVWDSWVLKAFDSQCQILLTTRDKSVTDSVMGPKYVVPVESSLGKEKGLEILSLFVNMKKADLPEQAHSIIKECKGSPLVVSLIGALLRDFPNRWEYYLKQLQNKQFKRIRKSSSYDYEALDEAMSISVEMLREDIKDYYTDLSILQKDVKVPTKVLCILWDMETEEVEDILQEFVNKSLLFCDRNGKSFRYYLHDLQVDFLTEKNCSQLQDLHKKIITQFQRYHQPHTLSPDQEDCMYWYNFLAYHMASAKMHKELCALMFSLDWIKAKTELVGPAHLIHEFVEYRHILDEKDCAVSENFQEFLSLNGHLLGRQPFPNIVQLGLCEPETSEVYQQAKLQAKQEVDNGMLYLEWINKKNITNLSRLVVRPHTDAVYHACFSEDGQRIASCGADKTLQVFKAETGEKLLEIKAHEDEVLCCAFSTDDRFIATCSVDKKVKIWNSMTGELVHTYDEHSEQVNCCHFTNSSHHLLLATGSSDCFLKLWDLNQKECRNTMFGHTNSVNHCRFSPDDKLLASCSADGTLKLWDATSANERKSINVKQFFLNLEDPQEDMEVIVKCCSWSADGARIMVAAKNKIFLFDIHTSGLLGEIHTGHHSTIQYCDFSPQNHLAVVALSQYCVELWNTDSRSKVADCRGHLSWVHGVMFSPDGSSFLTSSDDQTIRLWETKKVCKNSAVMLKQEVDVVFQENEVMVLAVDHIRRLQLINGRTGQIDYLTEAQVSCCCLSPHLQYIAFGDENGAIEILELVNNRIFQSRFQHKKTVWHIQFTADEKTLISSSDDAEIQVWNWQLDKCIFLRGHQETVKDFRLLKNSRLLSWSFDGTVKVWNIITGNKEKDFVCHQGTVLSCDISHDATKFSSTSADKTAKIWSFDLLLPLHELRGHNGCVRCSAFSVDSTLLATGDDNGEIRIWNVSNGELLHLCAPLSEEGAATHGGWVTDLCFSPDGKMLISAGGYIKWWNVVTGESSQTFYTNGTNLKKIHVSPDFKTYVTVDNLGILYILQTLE

Protein RecA = target: T2, Protein RecA (Mycobacterium tuberculosis, UniProt P9WHJ3); assay: Fluorescence Cell-Free Homogeneous Dose Retest to Identify Inhibitors of RecA-Intein Splicing Activity. [Related pubchem assays (depositor defined):AID2097, AID2223, AID489010, AID492950]; assay type: functional
T2 sequence (P9WHJ3 whole entry): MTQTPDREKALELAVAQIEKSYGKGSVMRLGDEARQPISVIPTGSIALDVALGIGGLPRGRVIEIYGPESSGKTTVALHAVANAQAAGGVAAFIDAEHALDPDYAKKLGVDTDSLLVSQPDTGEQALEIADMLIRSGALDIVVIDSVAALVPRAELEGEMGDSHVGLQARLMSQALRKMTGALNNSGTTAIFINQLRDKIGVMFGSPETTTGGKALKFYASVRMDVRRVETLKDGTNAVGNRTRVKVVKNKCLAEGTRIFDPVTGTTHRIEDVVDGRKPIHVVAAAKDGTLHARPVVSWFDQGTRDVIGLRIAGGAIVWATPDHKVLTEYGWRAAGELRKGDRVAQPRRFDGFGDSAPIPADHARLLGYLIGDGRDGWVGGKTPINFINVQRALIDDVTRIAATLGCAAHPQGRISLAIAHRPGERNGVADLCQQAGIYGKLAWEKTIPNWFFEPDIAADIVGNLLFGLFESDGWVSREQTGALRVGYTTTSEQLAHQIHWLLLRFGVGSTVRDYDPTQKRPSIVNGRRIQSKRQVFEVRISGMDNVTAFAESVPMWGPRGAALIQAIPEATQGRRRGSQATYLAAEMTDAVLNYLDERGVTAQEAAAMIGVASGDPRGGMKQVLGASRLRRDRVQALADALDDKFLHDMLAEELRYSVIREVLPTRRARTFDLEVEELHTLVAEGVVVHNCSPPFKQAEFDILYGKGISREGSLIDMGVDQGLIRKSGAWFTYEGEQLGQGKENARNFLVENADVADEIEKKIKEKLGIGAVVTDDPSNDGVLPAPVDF

[2] = target: T3, Tyrosyl-DNA phosphodiesterase 2 (Homo sapiens, UniProt O95551); assay: potency against TDP2 phosphodiesterase activity – biochemical, epi absorbance, IC50, dose response (AID 743297)
T3 sequence (O95551 whole entry): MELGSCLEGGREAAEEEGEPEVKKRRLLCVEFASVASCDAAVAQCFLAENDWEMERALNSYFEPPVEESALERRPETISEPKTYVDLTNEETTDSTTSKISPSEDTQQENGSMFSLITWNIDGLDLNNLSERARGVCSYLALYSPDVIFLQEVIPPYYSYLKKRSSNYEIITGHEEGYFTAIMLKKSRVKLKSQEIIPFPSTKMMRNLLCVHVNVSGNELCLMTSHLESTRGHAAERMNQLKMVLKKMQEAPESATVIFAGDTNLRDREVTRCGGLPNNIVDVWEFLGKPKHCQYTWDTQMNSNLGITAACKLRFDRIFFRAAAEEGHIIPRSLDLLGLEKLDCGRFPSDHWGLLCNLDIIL

SMILES | IC50 [1] | EC50 (Protein RecA) | IC50 [2]
O=C1/C(=N\c2cccc(O)c2)C(N2CCCCC2)=C(O)c2ccccc21 | 4.03 µM (active) | 0.364 µM (active) | > 42.8 µM (inactive)
COC(=O)c1cccc(-c2ccc(C(c3c(C)n[nH]c3O)c3c(C)n[nH]c3O)o2)c1 | – | 0.175 µM (active) | > 128 µM (inactive)
Cc1ccc(C(=O)NNc2cc(N3CCCC3)nc(N3CCCC3)n2)cc1 | 5.08 µM (active) | – | –

— ChEMBL document CHEMBL1201862, “PubChem BioAssay data set” (2004)
